Test [1] concerns hairless mice skin (stratum corneum). As to the kind of experiment: Skin surface pH after topical treatment or buffer exposure. The format is in vivo, mouse. To be noted: free fatty acid co-applied with BPB for three days.
Experimental: Animals: Male hairless mice (Skh1/Hr, Charles River Laboratories, Wilmington, Mass.), 8-12 weeks old, were fed Purina mouse diet and water ad libitum. […] Functional experiments were performed on animals aged 6-10 weeks.
The mice were anesthetized with chloral hydrate (Morton Grove Pharmaceuticals, Morton Grove, Ill., USA). After 3 hours immersion at 37° C., the mice were removed, and the remaining buffer was gently blotted off. After 15 minutes, barrier function was determined by measurement of transepidermal water loss (TEWL) with an electrolytic water analyzer (MEECO®, Warrington, Pa.). Surface pH was measured with a flat, glass surface electrode from Mettler-Toledo (Giessen, Germany), attached to a pH meter (Skin pH Meter PH 900, Courage & Khazaka, Cologne, Germany). Individually tested sites were covered with Hilltop Chambers (HtC, nominal volume 200 mL), which were reapplied following each indvidual measurement.
For test [2] the test system is unchanged. As to the kind of experiment: Stratum corneum cohesion: protein removed per D-Squame stripping. It is filed as in vivo, mouse. Conditions: for cumulative protein loss at the fifth strip: fatty acid co-applied with BPB for three days.
Experimental: Before stripping the stratum corneum, the skin surface was cleaned with a single ethanol wipe. D-Squame tapes then were placed sequentially to the test areas for about 3 sec each, removed with forceps, and stored in glass scintillation vials at 5° C.
The protein content per stripping was determined with the Bio-Rad protein assay kit. […] Each tape was incubated with 1 M NaOH for 1 hour at 37° C. in an incubator shaker at 80 rpm, and neutralized thereafter with 1 mL of 1 M HCl in the scintillation vials. Subsequently, 0.2 mL of this solution was incubated in 0.6 ml distilled water plus 0.2 mL of the Bio-Rad protein dye for 5 minutes in boroscillate tubes. […] An empty D-Squame tape, as well as distilled water incubated with Bio-Rad dye, served as negative controls. The amount of calculated protein was then normalized to skin surface area (μg/cm^2).
Test [3] shares this test system. Briefly: Stratum corneum integrity: TEWL after sequential tape stripping. Conditions: for TEWL rate by the fifth strip: fatty acid co-applied with BPB for three days; for sPLA2 inhibitor induced abnormalities in stratum corneum integrity and cohesion: fatty acid co-applied with BPB or MJ33. The format is in vivo, mouse.
Experimental: The mice were anesthetized with chloral hydrate (Morton Grove Pharmaceuticals, Morton Grove, Ill., USA). […] After 15 minutes, barrier function was determined by measurement of transepidermal water loss (TEWL) with an electrolytic water analyzer (MEECO®, Warrington, Pa.). […] Individually tested sites were covered with Hilltop Chambers (HtC, nominal volume 200 mL), which were reapplied following each indvidual measurement.
Test [4] concerns the target T1, NHE1 antiporter (Homo sapiens, UniProt P19634).
T1 construct: endogenous in cells; host or cells: second passage cultured human keratinocytes from human foreskin (CHK)
Briefly: Intracellular pH (BCECF) and recovery from acid load in cultured human keratinocytes. The format is cell-based. As for the experimental part: Assessment of Intracellular pH: Keratinocytes were plated on glass coverslips and grown in Cascade 154 medium containing 0.07 mM Ca^2+. The coverslips were incubated in 145 μM BCECF-AM ester at room temperature for 5 minutes, then rinsed for 30 minutes in buffer containing either 28 mM HEPES, 136 mM NaCl, 5 mM KCl, 0.07 mM CaCl2 and 10 mM glucose, pH 7.4 or Ringer solution (136 mM NaCl, 5 mM KCl, 0.03 mM Ca2+, 28 mM TES, 14 mM Na HCO3, NaOH to adjust the pH to 7.4, and 10 mM glucose (pH 7.4, 330 mOsm)). BCECF-AM-ester is membrane permeable; once inside cells it is de-esterified by endogenous […], trapping flourescently-active, acidic BCECF inside the cells. The BCECF-loaded cells were placed in a superfusion chamber mounted on a inverted microscope (Nikon). The keratinocytes were superfused with one of the two solutions, and baseline intracellular pH was monitored constantly using a ratiometric method (Paradiio et al (1987) Am J. Physiol. 253:C30-6). Briefly, BCECF loaded cells were alternately illuminated every 10 seconds with brief flashes (200 milliseconds) of 440 nm and 490 nm light. The resultant fluorescence (at 530 nm) from each stimulating wavelength was measured with a CCD camera (Hamamatsu) digitally ratioed, and stored using a software program (Fluor, Universal Imaging Co., West Chester, Pa.). Whereas fluorescence emission at 440 nm excitation remains constant, indicative of dye concentration, emission from 490 nm varies proportionally with changes intracellular pH. By ratioing the two signals, intracellular pH is measured as a brightness signal corrected for the intracellular dye concentration.
Calibration was performed at the end of each experiment by permeablizing the cells to protons with nigericin, thereby equilibrating intra- and extracellular pH. Superfusing the cells with solutions containing 85 mM NaCl, 50 mM KCl, 0.07 mM CaCl2, […] nigericin (a K^+/H^+ exchanger), and either 28 mM HEPES, or 28 mM TES bubbled with 5% CO2, pH 6.8 or 7.8, allowed to calibrate intracellular signals. […]

Test [5] deals with hairless mice skin (stratum corneum). Briefly: Electron microscopy of lamellar body secretion and extracellular lipid processing. The format is in vivo, mouse. Conditions: EM of biopsies. On the procedure:
(§1) The stratum corneum was removed by several strippings with adhesive tape (Tesa, Beiersdorf, Germany) inducing an increase in TEWL rates above baseline (from 0.2 to approximately 7-9 g/m^2/h). Two sites were prepared on each animal, and TEWL and surface pH were measured at 0, 2, 5 and 24 hrs following the stripping and the applications of inhibitors. Biopsies were taken for electron microscopy from treated and control sites, at 5 and 24 hours. For studies in the NHE1 knockout mice, homozygous (−/−) mice were compared to their wildtype (+/+) littermates. Flanks of these mice were shaved, and barrier homostasis was studied 48 hours later. For tape-stripping of these animals, D-Squame disks (Cu-derm, Dallas, Tex.) were used, as Tesa tape was too disruptive for application to shaved, hairy mouse skin.
Ultrastructural methods: Freshly obtained biopsies from mouse skin were fixed directly in modified Karnovsky's fixative, postfixed with reduced osmium tetroxide (OS04) and then imbedded in an Epon-epoxy mixture. For visualization of lipid-enriched, lamellar bilayer structures, some samples were post fixed in ruthenium tetroxide (RuO4). Sections were cut on a Reichert Ultracut E microtome, counterstained with uranyl acetate and lead citrate, and viewed in a Zeiss 10 CR electron microscope, operated at 60 kV.
Biopsies were taken during time course experiments.

The target of test [6] is T2, NHE1 antiporter (Mus musculus, UniProt Q61165).
T2 construct: from tissue; host or cells: skin (epidermis / stratum corneum) of living hairless mice
T2 sequence (Q61165 whole entry): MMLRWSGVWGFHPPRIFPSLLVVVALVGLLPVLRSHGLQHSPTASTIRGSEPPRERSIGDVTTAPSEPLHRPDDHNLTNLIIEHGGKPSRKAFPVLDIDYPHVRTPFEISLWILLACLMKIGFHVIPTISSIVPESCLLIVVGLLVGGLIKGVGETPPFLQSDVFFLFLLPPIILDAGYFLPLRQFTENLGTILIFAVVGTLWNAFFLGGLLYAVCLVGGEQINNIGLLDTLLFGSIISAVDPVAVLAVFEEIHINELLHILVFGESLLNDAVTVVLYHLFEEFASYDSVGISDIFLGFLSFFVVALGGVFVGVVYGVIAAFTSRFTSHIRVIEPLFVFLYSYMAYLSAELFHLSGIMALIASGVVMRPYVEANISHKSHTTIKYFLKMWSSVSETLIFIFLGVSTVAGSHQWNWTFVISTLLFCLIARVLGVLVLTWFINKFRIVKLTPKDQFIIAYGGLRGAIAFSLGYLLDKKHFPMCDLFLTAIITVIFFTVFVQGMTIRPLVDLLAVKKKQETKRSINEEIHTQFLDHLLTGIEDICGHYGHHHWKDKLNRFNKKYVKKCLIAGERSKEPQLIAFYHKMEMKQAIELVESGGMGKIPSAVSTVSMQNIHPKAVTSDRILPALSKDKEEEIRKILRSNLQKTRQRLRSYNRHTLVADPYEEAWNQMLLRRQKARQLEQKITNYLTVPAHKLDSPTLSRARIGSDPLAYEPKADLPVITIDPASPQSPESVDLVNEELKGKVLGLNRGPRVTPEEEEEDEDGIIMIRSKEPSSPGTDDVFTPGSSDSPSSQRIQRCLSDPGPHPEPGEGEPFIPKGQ
As to the kind of experiment: Barrier recovery (TEWL) after tape stripping. To be noted: for kinetics of barrier recovery after tape-stripping: NHE1 inhibitors, topical, hairless mice. The format is in vivo. As for the experimental part: (§2) Permeability Barrier Studies: Normal hairless mice were treated topically twice a daily for three days with BPB (4 mg/mL) or MJ33 (4 mg/mL) both in propylene glycol:ethanol (7:3 v/v) vehicle, or the vehicle alone on an area of 5-6 cm on the backs and flanks as described previously (Mao-Qiang, M., et al., J. Lipid Res. 36:1926-35 (1995)). The doses employed were shown previously to be non-toxic to Murine skin (Mao-Qiang, M., et al. (1995); Mao-Qiang, M., et al., J. Invest. Dermatol. 106:57-63 (1996)), and to inhibit secretory phospholipase A2 (sPLA2) activity selectively in different cell types (Gelb, M. H., et al., Faseb J. 8:916-24 (1994); Jain, M. K., et al. (1991)). The acidification experiments were performed with 10 mM HEPES-buffer, adjusted to either pH 5.5 or pH 7.4 as follows: One flank of anesthetized mice was immersed on a mesh netting, as described previously (Lee, S. H., et al., J. Clin. Invest. 89:530-8 (1992)). The mice were anesthetized with chloral hydrate (Morton Grove Pharmaceuticals, Morton Grove, Ill., USA). After 3 hours immersion at 37° C., the mice were removed, and the remaining buffer was gently blotted off. After 15 minutes, barrier function was determined by measurement of transepidermal water loss (TEWL) with an electrolytic water analyzer (MEECO®, Warrington, Pa.). Surface pH was measured with a flat, glass surface electrode from Mettler-Toledo (Giessen, Germany), attached to a pH meter (Skin pH Meter PH 900, Courage & Khazaka, Cologne, Germany). Individually tested sites were covered with Hilltop Chambers (HtC, nominal volume […]), which were reapplied following each indvidual measurement.
as §1
Hairless mice were tape stripped to TEWL of 7-9 g/m^2/h. […] Control areas were covered with Hilltop Chambers containing 10 mM HEPES buffer adjusted to pH 7.4 or pH 5.5 as appropriate. TEWL was measured at 0, 2, 5, and 24 hours post tape-strip. The results are reported as percent barrier recovery from the initial induced defect.

Test [7] addresses T2, NHE1 antiporter. As to the kind of experiment: Stratum corneum surface pH after tape stripping with buffers with or without NHE1 inhibitor. The format is in vivo. As for the experimental part:
as §2, §1
To investigate the role of NHE 1 in maintaining the pH balance of the stratum corneum, the integrity of murine skin exposed to different buffers and NHE1 inhibitors, was disrupted by tape-stripping. The pH of the exposed skin was measured before and after tape-stripping. Before tape-stripping, the surface pH in all animals was acidic (6.03+/−0.20, n=78). […] At five hours post-tape-strip, these samples were still not fully recovered, remaining more than 0.05 pH units higher than the initial post-tape-strip values.

Setting [8] is: fatty acid co-applied with MJ33 for three days.
The mark [9] stands for this setting: inhibitor in pH 7.4 buffer (amiloride 5 μM, HOE694 7.5 μM), two hours post tape-strip.
The mark [10] stands for this setting: inhibitor in pH 7.4 buffer, five hours post tape-strip.
Where [11] appears, read: HOE694 in pH 7.4 buffer, two hours post tape strip.

The source of these data is patent US20030113312A1, “Skin barrier function and cohesion through enhanced stratum corneum acidification” (The Regents of the University of California, priority 2001, published 2003).

Molecules are shown by their SMILES.

T1 sequence (P19634 whole entry): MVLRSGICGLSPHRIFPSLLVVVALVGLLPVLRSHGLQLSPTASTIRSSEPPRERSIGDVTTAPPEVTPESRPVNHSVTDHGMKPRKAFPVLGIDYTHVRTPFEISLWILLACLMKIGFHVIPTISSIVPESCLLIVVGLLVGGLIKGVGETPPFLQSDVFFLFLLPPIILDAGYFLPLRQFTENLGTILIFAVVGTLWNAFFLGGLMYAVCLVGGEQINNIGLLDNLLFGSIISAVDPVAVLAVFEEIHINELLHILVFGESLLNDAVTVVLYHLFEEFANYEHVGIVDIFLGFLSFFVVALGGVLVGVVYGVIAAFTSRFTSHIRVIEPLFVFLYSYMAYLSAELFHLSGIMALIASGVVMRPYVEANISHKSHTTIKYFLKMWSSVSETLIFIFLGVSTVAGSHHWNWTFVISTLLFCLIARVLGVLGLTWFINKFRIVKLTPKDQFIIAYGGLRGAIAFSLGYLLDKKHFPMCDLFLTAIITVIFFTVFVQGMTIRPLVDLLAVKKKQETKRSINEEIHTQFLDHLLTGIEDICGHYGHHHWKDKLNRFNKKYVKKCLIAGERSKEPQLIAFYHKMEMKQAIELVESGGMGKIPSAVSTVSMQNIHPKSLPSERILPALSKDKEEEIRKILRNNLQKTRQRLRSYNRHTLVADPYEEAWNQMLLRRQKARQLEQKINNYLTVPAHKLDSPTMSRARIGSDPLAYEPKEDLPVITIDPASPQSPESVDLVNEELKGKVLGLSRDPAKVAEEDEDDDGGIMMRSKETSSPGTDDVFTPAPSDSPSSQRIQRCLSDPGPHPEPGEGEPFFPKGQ

Take `CCCCCCCCCCCCCCCCCC(=O)O` [stearic acid]: the “pH of the stratum corneum” value in test [1] is listed as 5.73+/−0.09. Also, in test [2], the “cumulative protein loss at the fifth strip” value is “about 25 μg/cm^2”. In test [3], the “TEWL rate by the fifth strip” value is listed as “about 25 g/m^2/h”; the “sPLA2 inhibitor induced abnormalities in stratum corneum integrity and cohesion” value (“sPLA2 inhibitor induced abnormalities” for short) is reported as “prevented emergence”.

On to `Cl.N` [NH4Cl, ammonium chloride], for which the “intracellular pH response” value on NHE1 antiporter [4] (NH4Cl added to cultures of CHK, initial alkalinization, then after dissociation of the ammonium ion) is listed as “take on an acid load”.

Turning to `CCCCCCCCCCCCCCCC(=O)O` [palmitic acid], the “pH of the stratum corneum” value in test [1] is given as 5.40+/−0.14. In test [2], the “cumulative protein loss at the fifth strip” value is “about 40 μg/cm^2”. Moreover, the “loss of protein after three strippings” value in test [2] (setting [8]) was “about 30 μg/cm^2”. In test [3], the “TEWL rate by the fifth strip” value is recorded as 55-60 g/m^2/h; the “sPLA2 inhibitor induced abnormalities” value was “prevented emergence”. Further, the “TEWL rate after three sequential tape-strippings” value in test [3] (setting [8]) is reported as 30-35 g/m^2/h.

As for `CS(=O)(=O)c1cc(C(=O)NC(=N)N)ccc1N1CCCCC1` [HOE694, 3-methylsulfonyl-4-piperidino-benzoylguanidinemethanesulfonate], the “extracellular processing of secreted lipids” value was “appeared normal” in test [5] (HOE694 in pH 5.5 buffer) and “defective” in test [5] (HOE694 in pH 7.4 buffer). For the same compound, in test [5] (HOE694 in pH 7.4 buffer), the “lamellar body formation and secretion” value is on record as “undisturbed”. Also, the “percent barrier recovery (TEWL rate less than the initial induced rate)” value was 25% at NHE1 antiporter [6] (HOE694 in pH 5.5 buffer, 2 hours post tape-strip); 38% at NHE1 antiporter [6] (HOE694 in pH 5.5 buffer, 5 hours post tape-strip); 75% on NHE1 antiporter [6] (HOE694 in pH 5.5 buffer, 24 hours post tape-strip); “about 12%” at NHE1 antiporter [6] (setting [9]); “about 45%” at NHE1 antiporter [6] (inhibitor in pH 7.4 buffer, 24 hours post tape-strip); 23% at NHE1 antiporter [6] (setting [10]). For the same compound, the “kinetics of barrier recovery after tape-stripping” value on NHE1 antiporter [6] is on record as “delayed barrier recovery”. Moreover, the “initial post-tape-strip pH value vs pH 5.5 buffer alone” value at NHE1 antiporter [7] (HOE694 in pH 5.5 buffer) is “increased significantly”. The “pH increase over the initial post-tape-strip value” on NHE1 antiporter [7] (HOE694 in pH 5.5 buffer, five hours post-tape-strip) is reported as “more than 0.05 pH units”; at NHE1 antiporter [7] (HOE694 in pH 5.5 buffer, two hours post-tape-strip) it was “more than 0.1 pH units”; on NHE1 antiporter [7] (setting [11]), over 0.1 pH unit. In addition, on NHE1 antiporter [7] (HOE694 in pH 7.4 buffer), the “initial post-tape-strip pH value vs pH 7.4 buffer only” value is on record as “similar”. Further, the “elevated pH at five hours” value at NHE1 antiporter [7] (HOE694 in pH 7.4 buffer, five hours post tape strip) is “persisted and even increased”. Further, the “pH increase over the two hour time point of pH 7.4 buffer alone” value at NHE1 antiporter [7] (setting [11]) is given as about 0.05 pH units. Also, at NHE1 antiporter [4] (1.5 μM for 16 hours, dropped from pH 7.05), the “intracellular pH” value came out at 6.90 pH.

Regarding `CCCCC/C=C\C/C=C\CCCCCCCC(=O)O` [linoleic acid], the “pH of the stratum corneum” value in test [1] is given as 5.77+/−0.10. In addition, the “sPLA2 inhibitor induced abnormalities” value in test [3] is “to a lesser extent”.

Consider `N=C(N)NC(=O)c1nc(Cl)c(N)nc1N` [amiloride, N-Amido-3,5-diamino-6-chloropyrazinecarboxamide], for which, on NHE1 antiporter [6], the “kinetics of barrier recovery after tape-stripping” value was “delayed barrier recovery”. The “percent barrier recovery (TEWL rate less than the initial induced rate)” value at NHE1 antiporter [6] (setting [9]) is on record as “about 12%”; on NHE1 antiporter [6] (setting [10]), “about 25%”. The “effect after wash out period” value on NHE1 antiporter [4] (cultured human keratinocytes, wash out of amiloride, recovery from the acid load) is recorded as “non-permanent, non-toxic effect”.
